{"source": "ChEMBL document CHEMBL4130493", "about": "“An insight into the biological activities of heterocyclic-fatty acid hybrid molecules” (Eur J Med Chem, 2017)", "key": {"Mycobacterium avium": {"test_system": "Mycobacterium avium", "test": "Antimycobacterial activity against Mycobacterium avium", "type": "functional"}, "[1]": {"test_system": "Mycobacterium tuberculosis", "test": "Antimycobacterial activity against Mycobacterium tuberculosis H37Rv assessed as reduction in mycobacterial growth incubated for 5 days by MTT assay", "type": "functional", "settings": "120 h"}, "Staphylococcus aureus [2]": {"test_system": "Staphylococcus aureus", "test": "Antibacterial activity against Staphylococcus aureus MSSA 22 incubated for 24 hrs by filter paper disc method", "type": "functional"}, "Escherichia coli [3]": {"test_system": "Escherichia coli", "test": "Antibacterial activity against Escherichia coli K-12 incubated for 24 hrs by filter paper disc method", "type": "functional"}, "Bacillus subtilis [4]": {"test_system": "Bacillus subtilis", "test": "Antibacterial activity against Bacillus subtilis MTCC 121 incubated for 24 hrs by filter paper disc method", "type": "functional"}, "Pseudomonas aeruginosa": {"test_system": "Pseudomonas aeruginosa", "test": "Antibacterial activity against Pseudomonas aeruginosa incubated for 24 hrs by filter paper disc method", "type": "functional"}, "MCF7": {"test_system": "MCF7", "test": "Cytotoxicity in human MCF7 cells incubated for 48 hrs by MTT assay", "type": "functional, cell-based", "settings": "MCF7, 48 h"}, "Hep 3B2": {"test_system": "Hep 3B2", "test": "Cytotoxicity in human Hep3B cells incubated for 48 hrs by MTT assay", "type": "functional, cell-based"}, "HeLa": {"test_system": "HeLa", "test": "Cytotoxicity in human HeLa cells incubated for 48 hrs by MTT assay", "type": "functional, cell-based"}, "Candida albicans [5]": {"test_system": "Candida albicans", "test": "Antifungal activity against Candida albicans by disc diffusion method", "type": "functional"}, "Candida albicans [6]": {"test_system": "Candida albicans", "test": "Antifungal activity against Candida albicans IOA-109", "type": "functional"}, "Candida albicans [7]": {"test_system": "Candida albicans", "test": "Antifungal activity against Candida albicans IOA-109 incubated for 18 to 48 hrs", "type": "functional"}, "Klebsiella pneumoniae": {"test_system": "Klebsiella pneumoniae", "test": "Antibacterial activity against Klebsiella pneumoniae incubated for 24 hrs by filter paper disc method", "type": "functional"}, "Salmonella typhimurium": {"test_system": "Salmonella typhimurium", "test": "Antibacterial activity against Salmonella typhimurium MTCC98 by disc diffusion method", "type": "functional, Salmonella enterica subsp. enterica serovar Typhimurium"}, "Staphylococcus aureus [8]": {"test_system": "Staphylococcus aureus", "test": "Antibacterial activity against Staphylococcus aureus MSSA 22 by disc diffusion method", "type": "functional"}, "Escherichia coli [9]": {"test_system": "Escherichia coli", "test": "Antibacterial activity against Escherichia coli K-12 by disc diffusion method", "type": "functional"}, "Bacillus subtilis [10]": {"test_system": "Bacillus subtilis", "test": "Antibacterial activity against Bacillus subtilis ATCC 6051 by disc diffusion method", "type": "functional"}, "[11]": {"test_system": "Mycobacterium tuberculosis", "test": "Antimycobacterial activity against Mycobacterium tuberculosis XDR-TB", "type": "functional"}, "[12]": {"test_system": "Mycobacterium tuberculosis", "test": "Antimycobacterial activity against Mycobacterium tuberculosis MDR-TB", "type": "functional"}, "Candida albicans [13]": {"test_system": "Candida albicans", "test": "Antifungal activity against Candida albicans IOA-109 at 50 ug/disc incubated for 5 to 6 days by disc diffusion method", "type": "functional", "settings": "read-out: DIZ"}, "Staphylococcus aureus [14]": {"test_system": "Staphylococcus aureus", "test": "Antibacterial activity against Staphylococcus aureus at 50 ug/disc incubated for 18 hrs by disc diffusion method", "type": "functional", "settings": "read-out: DIZ"}}}
{"compound": "CCCCCCCCc1cn(CC(=O)OCC)nn1", "values": [{"measurement": "MIC", "setting": "Mycobacterium avium", "result": 0.5, "unit": "µg/mL"}, {"measurement": "MIC", "setting": "[1]", "result": 0.5, "unit": "µg/mL"}]}
{"compound": "CCCCC/C=C\\CCC(O)CCCCCCCC(=O)N1N=C(C)CC1=O", "note": "(stereo unspecified)", "values": [{"measurement": "diameter of the inhibition zone (DIZ)", "setting": "Staphylococcus aureus [2]", "result": "10 - 18 mm"}, {"measurement": "diameter of the inhibition zone (DIZ)", "setting": "Escherichia coli [3]", "result": "10 - 18 mm"}, {"measurement": "diameter of the inhibition zone (DIZ)", "setting": "Bacillus subtilis [4]", "result": "10 - 18 mm"}, {"measurement": "diameter of the inhibition zone (DIZ)", "setting": "Pseudomonas aeruginosa", "result": "10 - 18 mm"}]}
{"compound": "CCCC/C=C\\CCC(O)CCCCCCC1=NNC2SCC(c3ccccc3)=NN12", "note": "(stereo unspecified)", "values": [{"measurement": "IC50", "setting": "MCF7", "result": 8.8, "unit": "µM"}, {"measurement": "IC50", "setting": "Hep 3B2", "result": 7.36, "unit": "µM"}, {"measurement": "IC50", "setting": "HeLa", "result": 6, "unit": "µM"}]}
{"compound": "CCCCCC(O)/C=C\\CCCCCCCc1ccc(CCCCCCC/C=C\\C(O)CCCCC)o1", "note": "(stereo unspecified)", "values": [{"measurement": "diameter of the inhibition zone (DIZ)", "setting": "Candida albicans [5]", "result": 27, "unit": "mm"}]}
{"compound": "C=CCCCCCCCCc1nc2ccccc2s1", "values": [{"measurement": "diameter of the inhibition zone (DIZ)", "setting": "Candida albicans [6]", "result": "16 - 20 mm"}]}
{"compound": "CCCCCCC/C=C\\CC(O)CCCCCCC(=O)n1[nH]c(=O)c2ccccc2c1=O", "note": "(stereo unspecified)", "values": [{"measurement": "diameter of the inhibition zone (DIZ)", "setting": "Staphylococcus aureus [2]", "result": "10 - 18 mm"}, {"measurement": "diameter of the inhibition zone (DIZ)", "setting": "Escherichia coli [3]", "result": "15 - 18 mm"}, {"measurement": "diameter of the inhibition zone (DIZ)", "setting": "Bacillus subtilis [4]", "result": "10 - 18 mm"}, {"measurement": "diameter of the inhibition zone (DIZ)", "setting": "Pseudomonas aeruginosa", "result": "10 - 18 mm"}]}
{"compound": "CCCCC/C=C\\CCC(O)CCCCCCCC(=O)Nn1c(C)ccc1C", "note": "(stereo unspecified)", "values": [{"measurement": "diameter of the inhibition zone (DIZ)", "setting": "Candida albicans [7]", "result": "17 - 20 mm"}, {"measurement": "diameter of the inhibition zone (DIZ)", "setting": "Klebsiella pneumoniae", "result": "15 - 19 mm"}, {"measurement": "diameter of the inhibition zone (DIZ)", "setting": "Staphylococcus aureus [2]", "result": "15 - 19 mm"}, {"measurement": "diameter of the inhibition zone (DIZ)", "setting": "Escherichia coli [3]", "result": "15 - 19 mm"}, {"measurement": "diameter of the inhibition zone (DIZ)", "setting": "Bacillus subtilis [4]", "result": "15 - 19 mm"}]}
{"compound": "C=CCCCCCCCCC1=NNC2SCC(c3ccccc3)=NN12", "note": "(stereo unspecified)", "values": [{"measurement": "IC50", "setting": "MCF7", "result": 10.3, "unit": "µM"}, {"measurement": "IC50", "setting": "Hep 3B2", "result": 7.4, "unit": "µM"}, {"measurement": "IC50", "setting": "HeLa", "result": 8.01, "unit": "µM"}]}
{"compound": "C=CCCCCCCCCc1nnc(N)o1", "values": [{"measurement": "diameter of the inhibition zone (DIZ)", "setting": "Salmonella typhimurium", "result": "7 - 13 mm"}, {"measurement": "diameter of the inhibition zone (DIZ)", "setting": "Staphylococcus aureus [8]", "result": "7 - 13 mm"}, {"measurement": "diameter of the inhibition zone (DIZ)", "setting": "Escherichia coli [9]", "result": "7 - 13 mm"}, {"measurement": "diameter of the inhibition zone (DIZ)", "setting": "Bacillus subtilis [10]", "result": "7 - 13 mm"}]}
{"compound": "CCCCC/C=C\\CCC(O)CCCCCCCc1nc2ccccc2c(=O)o1", "note": "(stereo unspecified)", "values": [{"measurement": "diameter of the inhibition zone (DIZ)", "setting": "Candida albicans [7]", "result": "17 - 20 mm"}, {"measurement": "diameter of the inhibition zone (DIZ)", "setting": "Klebsiella pneumoniae", "result": "15 - 19 mm"}, {"measurement": "diameter of the inhibition zone (DIZ)", "setting": "Staphylococcus aureus [2]", "result": "15 - 19 mm"}, {"measurement": "diameter of the inhibition zone (DIZ)", "setting": "Escherichia coli [3]", "result": "15 - 19 mm"}, {"measurement": "diameter of the inhibition zone (DIZ)", "setting": "Bacillus subtilis [4]", "result": "15 - 19 mm"}]}
{"compound": "CCCCCCCCNc1cncc(C(=O)Nc2ccccc2)n1", "values": [{"measurement": "MIC", "setting": "[11]", "result": "16 to 32", "unit": "µM"}, {"measurement": "MIC", "setting": "[12]", "result": "16 to 32", "unit": "µM"}]}
{"compound": "CCCCCCCC/C=C\\CCCCCCCc1nc2ccccc2s1", "values": [{"measurement": "diameter of the inhibition zone (DIZ)", "setting": "Candida albicans [6]", "result": "16 - 20 mm"}]}
{"compound": "CCCCCCC(O)C/C=C\\CCCCCCCC1=NNC2SCC(c3ccccc3)=NN12", "note": "(stereo unspecified)", "values": [{"measurement": "IC50", "setting": "MCF7", "result": 8.59, "unit": "µM"}, {"measurement": "IC50", "setting": "Hep 3B2", "result": 6.5, "unit": "µM"}, {"measurement": "IC50", "setting": "HeLa", "result": 8.83, "unit": "µM"}]}
{"compound": "CCCCCCCC/C=C\\CCCCCCCC(=O)n1nnc2ccccc21", "values": [{"measurement": "zone of inhibition at 50 µg/disc", "setting": "Candida albicans [13]", "result": "13 to 15", "unit": "mm"}, {"measurement": "zone of inhibition at 50 µg/disc", "setting": "Staphylococcus aureus [14]", "result": "13 to 15", "unit": "mm"}]}
{"compound": "CCCCCCCCCCCCCCCc1ccc(CCCCCCCCCCCCCCC)o1", "values": [{"measurement": "diameter of the inhibition zone (DIZ)", "setting": "Candida albicans [5]", "result": 27, "unit": "mm"}]}
{"compound": "CCCCCCC(O)C/C=C\\CCCCCCC(=O)N1N=C(C)CC1=O", "note": "(stereo unspecified)", "values": [{"measurement": "diameter of the inhibition zone (DIZ)", "setting": "Staphylococcus aureus [2]", "result": "10 - 18 mm"}, {"measurement": "diameter of the inhibition zone (DIZ)", "setting": "Escherichia coli [3]", "result": "10 - 18 mm"}, {"measurement": "diameter of the inhibition zone (DIZ)", "setting": "Bacillus subtilis [4]", "result": "10 - 18 mm"}, {"measurement": "diameter of the inhibition zone (DIZ)", "setting": "Pseudomonas aeruginosa", "result": "10 - 18 mm"}]}
{"compound": "CCCCCCCCCCCCCCCc1nc2ccccc2s1", "values": [{"measurement": "diameter of the inhibition zone (DIZ)", "setting": "Candida albicans [6]", "result": "16 - 20 mm"}]}
{"compound": "CCCCCCCC(O)CC/C=C\\CCCCC(=O)n1[nH]c(=O)c2ccccc2c1=O", "note": "(stereo unspecified)", "values": [{"measurement": "diameter of the inhibition zone (DIZ)", "setting": "Staphylococcus aureus [2]", "result": "10 - 18 mm"}, {"measurement": "diameter of the inhibition zone (DIZ)", "setting": "Escherichia coli [3]", "result": "15 - 18 mm"}, {"measurement": "diameter of the inhibition zone (DIZ)", "setting": "Bacillus subtilis [4]", "result": "10 - 18 mm"}, {"measurement": "diameter of the inhibition zone (DIZ)", "setting": "Pseudomonas aeruginosa", "result": "10 - 18 mm"}]}
{"compound": "CCCCCCC(O)C/C=C\\CCCCCCC(=O)Nn1c(C)ccc1C", "note": "(stereo unspecified)", "values": [{"measurement": "diameter of the inhibition zone (DIZ)", "setting": "Candida albicans [7]", "result": "17 - 20 mm"}, {"measurement": "diameter of the inhibition zone (DIZ)", "setting": "Klebsiella pneumoniae", "result": "15 - 19 mm"}, {"measurement": "diameter of the inhibition zone (DIZ)", "setting": "Staphylococcus aureus [2]", "result": "15 - 19 mm"}, {"measurement": "diameter of the inhibition zone (DIZ)", "setting": "Escherichia coli [3]", "result": "15 - 19 mm"}, {"measurement": "diameter of the inhibition zone (DIZ)", "setting": "Bacillus subtilis [4]", "result": "15 - 19 mm"}]}
{"compound": "C=CCCCCCCCCC(=O)n1nnc2ccccc21", "values": [{"measurement": "zone of inhibition at 50 µg/disc", "setting": "Candida albicans [13]", "result": "13 to 15", "unit": "mm"}, {"measurement": "zone of inhibition at 50 µg/disc", "setting": "Staphylococcus aureus [14]", "result": "13 to 15", "unit": "mm"}]}
{"compound": "CCCCCCC(O)C/C=C\\CCCCCCCc1nnc(N)o1", "note": "(stereo unspecified)", "values": [{"measurement": "diameter of the inhibition zone (DIZ)", "setting": "Salmonella typhimurium", "result": "13 - 18 mm"}, {"measurement": "diameter of the inhibition zone (DIZ)", "setting": "Staphylococcus aureus [8]", "result": "13 - 18 mm"}, {"measurement": "diameter of the inhibition zone (DIZ)", "setting": "Escherichia coli [9]", "result": "13 - 18 mm"}, {"measurement": "diameter of the inhibition zone (DIZ)", "setting": "Bacillus subtilis [10]", "result": "13 - 18 mm"}]}
{"compound": "CCCCCCC(O)C/C=C\\CCCCCCc1nc2ccccc2c(=O)o1", "note": "(stereo unspecified)", "values": [{"measurement": "diameter of the inhibition zone (DIZ)", "setting": "Candida albicans [7]", "result": "17 - 20 mm"}, {"measurement": "diameter of the inhibition zone (DIZ)", "setting": "Klebsiella pneumoniae", "result": "15 - 19 mm"}, {"measurement": "diameter of the inhibition zone (DIZ)", "setting": "Staphylococcus aureus [2]", "result": "15 - 19 mm"}, {"measurement": "diameter of the inhibition zone (DIZ)", "setting": "Escherichia coli [3]", "result": "15 - 19 mm"}, {"measurement": "diameter of the inhibition zone (DIZ)", "setting": "Bacillus subtilis [4]", "result": "15 - 19 mm"}]}
